In US12661313B2, “Cosmetic composition” (MARY KAY INC., priority 2019, dated 2026):

How the values were obtained:
MMP-9 = molecular target: T1, MMP-9 (Homo sapiens, UniProt P14780); test: Matrix Metalloproteinase 9 Enzyme Activity (MMP-9) Assay (BioMol AK-410); type: biochemical; settings: thiopeptide chromogenic substrate, absorbance 412 nm
T1 construct: purchased BioMol International AK-410
From the text: (§1) MMPs are extracellular proteases that play a role in many normal and disease states by virtue of their broad substrate specificity. MMP-3 substrates include collagens, fibronectins, and laminin; while MMP-9 substrates include collagen VII, fibronectins and laminin. Colorimetric Drug Discovery kits from BioMol International for MMP-3 (AK-400) and MMP-9 (AK-410) were used to measure protease activity of MMPs using a thiopeptide as a chromogenic substrate (Ac-PLG-[2-mercapto-4-methyl-pentanoyl]-LG-OC2H5)5,6. The MMP cleavage site peptide bond is replaced by a thioester bond in the thiopeptide. Hydrolysis of this bond by an MMP produces a sulfhydryl group, which reacts with DTNB [5,5′-dithiobis(2-nitrobenzoic acid), Ellman's reagent] to form 2-nitro-5-thiobenzoic acid, which can be detected by its absorbance at 412 nm (ε=13,600 M−1 cm−1 at pH 6.0 and above 7). It was determined that Rosmarinus officinalis leaf extract inhibited MMP-3 by 40%, Morus alba fruit extract inhibited by 29%, and tetrahexyldecyl ascorbate inhibited by 38%. It was determined that Rosmarinus officinalis leaf extract inhibited MMP-9 by 61%, Morus alba fruit extract inhibited by 84%, tetrahexyldecyl ascorbate inhibited by 11%, and Acmella oleracea extract inhibited by 80%.

procollagen-1 = test: Collagen Stimulation Assay (PICP ELISA, Takara #MK101); type: cell-based; settings: normal human adult epidermal fibroblasts treated 3 days, culture medium
From the text: Collagens (types I, II, III, IV and V) are synthesized as precursor molecules called procollagens. These precursor molecules contain additional peptide sequences, usually called “propeptides”, at both the amino-terminal and the carboxy-terminal ends. During cellular expression and secretion, procollagens are assembled in the trimeric form and then cleaved at specific N- and C-terminal sites by specific endopeptidases, generating three fragments: procollagen-1 N-terminal propeptide (PINP), Type I collagen, and procollagen-1 carboxy-terminal propeptide (PICP).
The function of the propeptides is to facilitate the winding of procollagen molecules into a triple-helical conformation within the endoplasmic reticulum. […]
Quantitative detection of PICP in fibroblast cell extracts and culture supernatants was performed with an enzyme immunoassay kit (e.g., Takara #MK101) to assess the effects of the ingredients on the synthesis of PICP in skin. […] The assay employed the quantitative sandwich enzyme immunoassay technique whereby a monoclonal antibody specific for procollagen peptide was pre-coated onto a microplate. […] Color development was stopped and the intensity of the color at 450 nm was measured using a microplate reader. […]

MMP-3 = molecular target: T2, MMP-3 (Homo sapiens, UniProt P08254); test: Matrix Metalloproteinase 3 Enzyme Activity (MMP-3) Assay (BioMol AK-400); type: biochemical; settings: thiopeptide chromogenic substrate, absorbance 412 nm
T2 construct: purchased BioMol International AK-400
T2 sequence (P08254 100-272 limits assumed): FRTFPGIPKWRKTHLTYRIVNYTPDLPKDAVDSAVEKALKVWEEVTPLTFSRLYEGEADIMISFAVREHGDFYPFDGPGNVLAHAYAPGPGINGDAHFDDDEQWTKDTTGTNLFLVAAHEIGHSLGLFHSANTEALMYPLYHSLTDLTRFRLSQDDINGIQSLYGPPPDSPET
From the text: as §1

IL-6 = test: Inhibition of IL-6
TNF-α = test: Tumor Necrosis Factor Alpha (TNF-α) Assay (ELISA, PMA-treated keratinocytes); type: cell-based; settings: normal human adult keratinocytes, PMA 10 ng/ml, 6 hours
From the text: Tumor Necrosis Factor Alpha (TNF-α) Assay: Rosmarinus officinalis leaf extract and saccharide isomerate inhibit TNF-α activity. The prototype ligand of the TNF superfamily, TNF-α, is a pleiotropic cytokine that plays a central role in inflammation. Increase in its expression is associated with an up regulation in pro-inflammatory activity. The bioassay used analyzed the effect of Rosmarinus officinalis leaf extract and saccharide isomerate on the production of TNF-α by human epidermal keratinocytes. The endpoint of this assay was a spectrophotometric measurement that reflects the presence of TNF-α and cellular viability. The assay employed the quantitative sandwich enzyme immunoassay technique whereby a monoclonal antibody specific for TNF-α had been pre-coated onto a microplate.
Standards and samples were pipetted into wells of the microplate and any TNF-α present was bound by the immobilized antibody. After washing away any unbound substances, an enzyme-linked polyclonal antibody specific for TNF-α was added to the wells. Following a wash to remove any unbound antibody-enzyme reagent, a substrate solution was added to the wells and color developed in proportion to the amount of TNF-α bound in the initial step using a microplate reader for detection at 450 nm. The color development can be stopped and the intensity of the color was measured. […]

T1 sequence (P14780 107-444 limits assumed): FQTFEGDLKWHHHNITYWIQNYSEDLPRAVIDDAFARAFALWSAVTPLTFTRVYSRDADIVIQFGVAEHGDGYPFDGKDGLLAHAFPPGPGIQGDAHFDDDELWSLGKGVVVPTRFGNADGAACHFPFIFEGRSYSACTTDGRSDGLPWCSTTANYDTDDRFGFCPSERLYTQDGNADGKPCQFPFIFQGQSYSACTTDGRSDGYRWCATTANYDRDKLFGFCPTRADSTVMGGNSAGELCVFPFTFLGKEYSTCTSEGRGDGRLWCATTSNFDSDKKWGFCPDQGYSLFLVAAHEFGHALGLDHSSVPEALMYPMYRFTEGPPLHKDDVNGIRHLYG

| Compound | Inhibit MMP-9, Change (%) (MMP-9) | Increase Collagen Expression (procollagen-1), Change (%) (procollagen-1) | Inhibit MMP-3, Change (%) (MMP-3) | Inhibit IL-6, Change (%) (IL-6) | Inhibit TNF-α, Change (%) (TNF-α) |
| --- | --- | --- | --- | --- | --- |
| CCCCCCCCC(CCCCCC)C(=O)OC[C@H](OC(=O)C(CCCCCC)CCCCCCCC)[C@H]1OC(=O)C(OC(=O)C(CCCCCC)CCCCCCCC)=C1OC(=O)C(CCCCCC)CCCCCCCC (some centres unmarked) [Tetrahexyldecyl ascorbate] | 11% | 50% | 38% | 38% | – |
| Saccharide isomerate | – | – | – | – | 88% |
